From US20240058457A1, “BTK DEGRADER” (Newave Pharmaceutical Inc., priority 2020, published 2024) come the findings set out here.

In the experiment the target is T1, BTK (Homo sapiens, UniProt Q06187).
T1 construct: endogenous in cells; host or cells: Rec-1 cells (ATCC) / Ramos cells
Nature of the experiment: BTK HTRF degradation assay. Type of experiment: cell-based. Conditions: treatment time 24 h; Cisbio Total-BTK HTRF; Rec-1 / Ramos cells. The method, then: Rec-1 cells were obtained from American Type Culture Collection and were grown in RPMI-1640 media (ATCC, 30-2001) supplemented with 10% heat-inactivated FBS (Corning Premium Fetal Bovine Serum from Fisher, MT35015CV). Compounds of the present invention were added to 50,000 Ramos cells in round-bottom 96 well plates with a final DMSO concentration of […] and were incubated at 37° C. 5% CO2 for different time. BTK levels were determined using Cisbio Total-BTK HTRF ([…] Time-Resolved Fluorescence) kit (63ADK064PEG) according to manufacturer's protocol. Briefly, cells were incubated in 1× supplied lysis buffer for 30 minutes. In an opaque white low volume 96 well plate (Cisbio, 66PL96005), cell lysate was combined with two different specific BTK antibodies, one conjugated with Eu3+-Cryptate FRET donor and one conjugated with d2 FRET acceptor. Assay controls include wells containing cell lysate with only the Eu3+-Cryptate FRET donor antibody and wells containing both HTRF antibodies and lysis buffer without cells or control lysate provided by Cisbio. HTRF ratio was calculated as (acceptor signal at 665 nm/donor signal at 620 nm)×[…]. Background HTRF levels were determined from the control well containing the donor, but no acceptor, antibody. Background HTRF levels were subtracted from all samples. Readouts were reported as HTRF levels relative to HTRF levels of DMSO-treated cells. Four-parameter non-linear regressions were performed in GraphPad Prism 7.02 to obtain DC50 values.

T1 sequence (Q06187 whole entry): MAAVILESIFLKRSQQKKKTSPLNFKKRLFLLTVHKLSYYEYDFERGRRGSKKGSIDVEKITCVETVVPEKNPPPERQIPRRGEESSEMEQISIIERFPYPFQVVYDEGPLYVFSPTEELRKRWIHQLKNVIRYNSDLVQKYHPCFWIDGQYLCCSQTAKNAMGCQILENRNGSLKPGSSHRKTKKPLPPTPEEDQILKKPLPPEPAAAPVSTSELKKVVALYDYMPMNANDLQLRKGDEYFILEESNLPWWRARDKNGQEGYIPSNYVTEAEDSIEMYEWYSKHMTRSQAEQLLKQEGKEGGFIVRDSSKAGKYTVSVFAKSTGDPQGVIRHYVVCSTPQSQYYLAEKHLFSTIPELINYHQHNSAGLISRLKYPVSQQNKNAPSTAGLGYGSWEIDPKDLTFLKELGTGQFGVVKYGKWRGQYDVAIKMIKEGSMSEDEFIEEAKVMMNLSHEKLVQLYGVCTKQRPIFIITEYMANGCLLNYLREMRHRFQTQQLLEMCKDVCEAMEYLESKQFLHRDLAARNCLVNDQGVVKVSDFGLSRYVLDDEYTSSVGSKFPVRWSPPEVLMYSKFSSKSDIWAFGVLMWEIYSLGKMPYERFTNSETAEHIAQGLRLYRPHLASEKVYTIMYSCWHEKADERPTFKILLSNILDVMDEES

Take “5-{4-[(3S)-4-{6-[(6-tert-butyl-2′. {4,4-dimethyl-9-oxo-1,10-diazatricyclo[6.4.0.0^{2,6}]dodeca-2(6),7-dien-10-yl}-3′-(hydroxymethyl)-[3,4′-bipyridin]-5-yl)amino]pyridin-3-yl}-3-methylpiperazin-1-yl]piperidin-1-yl}-2-(2,6-dioxopiperidin-3-yl)isoindole-1,3-dione [Example 12]”: the 50% degradation concentration (DC50) was more than 1000 nM and the Dmax % worked out at 7%.
The corresponding values for `C[C@H]1CN(C2CN(c3ccc4c(c3)C(=O)N(C3CCC(=O)NC3=O)C4=O)C2)CCN1c1ccc(Nc2cc(-c3ccnc(N4CCn5c(cc6c5CC(C)(C)C6)C4=O)c3CO)cn(C)c2=O)nc1` (stereo partly drawn) [Example 1, 5-{3-[(3S)-4-{6-[(2′-{4,4-dimethyl-9-oxo-1,10-diazatricyclo[6.4.0.0^{2,6}]dodeca-2(6),7-dien-10-yl}-3′-(hydroxymethyl)-1-methyl-6-oxo-[3,4′-bipyridin]-5-yl)amino]pyridin-3-yl}-3-methylpiperazin-1-yl]azetidin-1-yl}-2-(2,6-dioxopiperidin-3-yl)isoindole-1,3-dione] are 1.16 nM and 100%.
Compound `C[C@H]1CN(C2CC(C#Cc3ccc4c(c3)C(=O)N(C3CCC(=O)NC3=O)C4=O)C2)CCN1c1ccc(Nc2cc(-c3ccnc(N4CCn5c(cc6c5CC(C)(C)C6)C4=O)c3CO)cn(C)c2=O)nc1` (stereo partly drawn) [Example 3, 5-((3-((S)-4-(6-((2′-(7,7-dimethyl-1-oxo-1,3,4,6,7,8-hexahydro-2H-cyclopenta[4,5]pyrrolo[1,2-a]pyrazin-2-yl)-3′-(hydroxymethyl)-1-methyl-6-oxo-1,6-dihydro-[3,4′-bipyridin]-5-yl)amino)pyridin-3-yl)-3-methylpiperazin-1-yl)cyclobutyl)ethynyl)-2-(2,6-dioxopiperidin-3-yl)isoindoline-1,3-dione] displayed a 50% degradation concentration (DC50) of 2.04 nM and a Dmax of 97%.
Take `C[C@H]1CN(C2CCN(c3ccc4c(c3)C(=O)N(C3CCC(=O)NC3=O)C4=O)CC2)CCN1c1ccc(Nc2cc(-c3ccnc(N4CCc5c(sc6c5CCCC6)C4=O)c3CO)cn(C)c2=O)nc1` (stereo partly drawn) [Example 9, 2-(2,6-dioxopiperidin-3-yl)-5-{4-[(3S)-4-(6-{[3′-(hydroxymethyl)-1-methyl-6-oxo-2′-{6-oxo-8-thia-5-azatricyclo[7.4.0.0^{2,7}]trideca-1(9),2(7)-dien-5-yl}-[3,4′-bipyridin]-5-yl]amino}pyridin-3-yl)-3-methylpiperazin-1-yl]piperidin-1-yl}isoindole-1,3-dione]: the DC50 was determined as 0.9 nM and the Dmax % was 99%.
The corresponding values for `Cc1c(-c2cc(Nc3ccc(N4CCN(C5CCN(c6ccc7c(c6)C(=O)N(C6CCC(=O)NC6=O)C7=O)CC5)C[C@@H]4C)cn3)c(=O)n(C)c2)ccnc1N1CCn2c(cc3c2CC(C)(C)C3)C1=O` (stereo partly drawn) [Example 10, 5-{4-[(3S)-4-{6-[(2′-{4,4-dimethyl-9-oxo-1,10-diazatricyclo[6.4.0.0^{2,6}]dodeca-2(6),7-dien-10-yl}-1,3′-dimethyl-6-oxo-[3,4′-bipyridin]-5-yl)amino]pyridin-3-yl}-3-methylpiperazin-1-yl]piperidin-1-yl}-2-(2,6-dioxopiperidin-3-yl)isoindole-1,3-dione] are 4.63 nM and 99%.
For `C[C@H]1CN(C2CCN(c3ccc4c(c3)C(=O)N(C3CCC(=O)NC3=O)C4=O)CC2)CCN1c1ccc(Nc2cc(-c3ccnc(N4CCc5c(sc6c5CCCC6)C4=O)c3CO)cn(C)c2=O)nc1` (stereo partly drawn) [Example 11, 2-(2,6-dioxopiperidin-3-yl)-5-{4-[(3S)-4-(6-{[3′-(hydroxymethyl)-1-methyl-6-oxo-2′-{6-oxo-8-thia-5-azatricyclo[7.4.0.0^{2,7}]trideca-1(9),2(7)-dien-5-yl}-[3,4′-bipyridin]-5-yl]amino}pyridin-3-yl)-3-methylpiperazin-1-yl]piperidin-1-yl}isoindole-1,3-dione] the same measures were 9.49 nM and 99%.
For `C[C@H]1CN(C2CCN(c3ccc4c(c3)C(=O)N(C3CCC(=O)NC3=O)C4=O)CC2)CCN1c1ccc(Nc2cc(-c3ccnc(N4CCn5c(cc6c5CC(C)(C)C6)C4=O)c3CO)ccn2)nc1` (stereo partly drawn) [Example 13, 5-{4-[(3S)-4-{6-[(2′-{4,4-dimethyl-9-oxo-1,10-diazatricyclo[6.4.0.0^{2,6}]dodeca-2(6),7-dien-10-yl}-3′-(hydroxymethyl)-[4,4′-bipyridin]-2-yl)amino]pyridin-3-yl}-3-methylpiperazin-1-yl]piperidin-1-yl}-2-(2,6-dioxopiperidin-3-yl)isoindole-1,3-dione] the same measures were 4.4 nM and 98%.
`COc1ncc(-c2ccnc(N3CCn4c(cc5c4CC(C)(C)C5)C3=O)c2CO)cc1Nc1ccc(N2CCN(C3CCN(c4ccc5c(c4)C(=O)N(C4CCC(=O)NC4=O)C5=O)CC3)C[C@@H]2C)cn1` (stereo partly drawn) [Example 14, 5-{4-[(3S)-4-{6-[(2′-{4,4-dimethyl-9-oxo-1,10-diazatricyclo[6.4.0.0^{2,6}]dodeca-2(6),7-dien-10-yl}-3′-(hydroxymethyl)-6-methoxy-[3,4′-bipyridin]-5-yl)amino]pyridin-3-yl}-3-methylpiperazin-1-yl]piperidin-1-yl}-2-(2,6-dioxopiperidin-3-yl)isoindole-1,3-dione] had a DC50 of 1.15 nM and a Dmax % of 94%.
`C[C@H]1CN(C2CCN(c3ccc4c(c3)C(=O)N(C3CCC(=O)NC3=O)C4=O)CC2)CCN1c1ccc(Nc2cc(-c3ccnc(N4CCn5c(cc6c5CC(C)(C)C6)C4=O)c3CO)ncn2)nc1` (stereo partly drawn) [Example 15, 5-{4-[(3S)-4-(6-{[6-(2-{4,4-dimethyl-9-oxo-1,10-diazatricyclo[6.4.0.0^{2,6}]dodeca-2(6),7-dien-10-yl}-3-(hydroxymethyl)pyridin-4-yl)pyrimidin-4-yl]amino}pyridin-3-yl)-3-methylpiperazin-1-yl]piperidin-1-yl}-2-(2,6-dioxopiperidin-3-yl)isoindole-1,3-dione] came in with a DC50 of 21.7 nM and a Dmax % of 98%.
For the compound `C[C@H]1CN([C@@H]2CCN3c4ccc5c(c4OC[C@H]3C2)C(=O)N(C2CCC(=O)NC2=O)C5=O)CCN1c1ccc(Nc2cc(-c3ccnc(N4CCn5c(cc6c5CC(C)(C)C6)C4=O)c3CO)cn(C)c2=O)nc1` (stereo partly drawn) [Example 16, (5aR,7R)-7-((S)-4-(6-((2′-(7,7-dimethyl-1-oxo-1,3,4,6,7,8-hexahydro-2H-cyclopenta[4,5]pyrrolo[1,2-a]pyrazin-2-yl)-3′-(hydroxymethyl)-1-methyl-6-oxo-1,6-dihydro-[3,4′-bipyridin]-5-yl)amino)pyridin-3-yl)-3-methylpiperazin-1-yl)-2-(2,6-dioxopiperidin-3-yl)-5,5a,6,7,8,9-hexahydro-1H-pyrido[1′,2′:4,5][1,4]oxazino[2,3-e]isoindole-1,3(2H)-dione], the half-maximal degradation concentration (DC50) turned out to be 29.6 nM and the Dmax came to 97%.
`C[C@H]1CN([C@H]2CCN3c4ccc5c(c4OC[C@H]3C2)C(=O)N(C2CCC(=O)NC2=O)C5=O)CCN1c1ccc(Nc2cc(-c3ccnc(N4CCn5c(cc6c5CC(C)(C)C6)C4=O)c3CO)cn(C)c2=O)nc1.Cl` (stereo partly drawn) [Example 17, hydrochloride] yielded a DC50 of 3.58 nM. This lies in the single-digit nanomolar range.
Turning to `C[C@H]1CN([C@H]2CCN3c4ccc5c(c4OC[C@H]3C2)C(=O)N(C2CCC(=O)NC2=O)C5=O)CCN1c1ccc(Nc2cc(-c3ccnc(N4CCn5c(cc6c5CC(C)(C)C6)C4=O)c3CO)cn(C)c2=O)nc1.Cl` (stereo partly drawn) [Example 17], the Dmax % is listed as 95%.
In turn, `C[C@H]1CN([C@H]2CCN3c4ccc5c(c4OC[C@@H]3C2)C(=O)N(C2CCC(=O)NC2=O)C5=O)CCN1c1ccc(Nc2cc(-c3ccnc(N4CCn5c(cc6c5CC(C)(C)C6)C4=O)c3CO)cn(C)c2=O)nc1.Cl` (stereo partly drawn) [Example 18, hydrochloride] showed a DC50 of 22.8 nM.
In turn, `C[C@H]1CN([C@H]2CCN3c4ccc5c(c4OC[C@@H]3C2)C(=O)N(C2CCC(=O)NC2=O)C5=O)CCN1c1ccc(Nc2cc(-c3ccnc(N4CCn5c(cc6c5CC(C)(C)C6)C4=O)c3CO)cn(C)c2=O)nc1.Cl` (stereo partly drawn) [Example 18] displayed a Dmax % of 93%.

One may read the DC50 as the midpoint of the concentration-degradation curve. A word on the Dmax: it is the largest share of the target that was removed. A high value points to deep degradation.
